Measurements: patent publication US20100143462A1, “NEW CARBAMAZEPHINE FORMULATIONS HAVING INPROVED SOLUBILITY” (NUTRALEASE LTD., priority 2004, published 2010)

Key:
[1] = Solubilization capacity of microemulsion / concentrate for Carbamazepine; format: physicochemical; settings: 50 wt % aqueous phase (water:PG 1:1), dilution line 7:3, D-limonene:ethanol 1:1, FIG. 2
Experimental: When solubilizing a drug in a microemulsion system, the solubilization capacity should be characterized. […] For the 7:3 dilution line (FIG. 2), the 5 gr oil phase concentrate comprises 0.75 gr of D-limonene, 0.75 gr EtOH (each being 15 wt %), and 3.5 gr Tween 60 (70 wt %). The 5 gr oil concentrate is then diluted in an aqueous phase of water:propylene glycol (1:1). For the 8:2 dilution line (FIG. 3) the 5 gr oil phase concentrate comprises 0.5 gr of D-limonene, 0.5 gr EtOH (each being 10 wt %), and 4 gr Tween 60 (80 wt %). The 5 gr oil concentrate is then diluted in an aqueous phase of water:propylene glycol (1:1). For the 9:1 dilution line (FIG. 4) the 5 gr oil phase concentrate comprises 0.25 gr of D-limonene, 0.25 gr EtOH (each being 5 wt %), and 4 gr Tween 60 (90 wt %). The 5 gr oil concentrate is then diluted in an aqueous phase of water:propylene glycol (1:1).
Preparations of the microemulsions and microemulsion concentrate were done in the following manner. The surfactant and the oil phase were mixed at the appropriate ratio, 7:3, 8:2 and 9:1 respectively, to form the concentrate. The solubilization of the drug in the concentrate was determined by solubilizing it to form clear solutions, until the maximal amount was reached. […]

[2] = following a single oral dose; cited from earlier work

solubilization capacity of microemulsion (solubilized Carbamazepine) [1]: 3.76%
Structure (SMILES): NC(=O)N1c2ccccc2C=Cc2ccccc21 [Carbamazepine, 5H-Dibenz(b,f)azepine-5-carboxamide]
elimination half-life of unchanged Carbamazepine in the plasma [2]: approximately 36 hours
